Patent EP4083217A1, “IN VIVO […] THERAPY FOR THE TREATMENT OF PRIMARY HYP[…] 1” (Centro de Investigaciones Energéticas, Medioambientales y …, priority 2021, dated 2022)

Tested on: HepG2 cells
Experiment: Transduction enhancer Cyclosporin H in vitro testing (eGFP positive cells by flow cytometry)
Type: cell-based
Method: Due to the important relevance of the target tissue origin, HepG2 cells, a hepatic cell line, were used.
Three days after transduction, the percentage of eGFP positive cells was analysed by Flow Cytometry. All conditions were performed as triple experimental replicates.

For `C/C=C/C[C@@H](C)[C@@H](O)[C@H]1C(=O)N[C@@H](CC)C(=O)N(C)CC(=O)N(C)[C@@H](CC(C)C)C(=O)N[C@@H](C(C)C)C(=O)N(C)[C@@H](CC(C)C)C(=O)N[C@@H](C)C(=O)N[C@H](C)C(=O)N(C)[C@@H](CC(C)C)C(=O)N(C)[C@@H](CC(C)C)C(=O)N(C)[C@H](C(C)C)C(=O)N1C` [CsH, Cyclosporin H], the “transduction percentage (eGFP positive cells)” value (HepG2, LV.ET.eGFP.142-3pT MOI 0.3, 4 µM CsH during transduction) was 37.67%, the “percentage of transduced cells” value (HepG2, LV.ET.eGFP.142-3pT MOI 0.3, 16 µM CsH 16 hours pre-treatment and during transduction) was 31.03% and the “transduction percentage (eGFP positive cells)” value (HepG2, LV.ET.eGFP.142-3pT MOI 0.3, 16 µM CsH during transduction) was 51.5%.
